Literature values as cited in patent US20180125835A1, “Dosage and Use of an A2A Antagonist” (H. Lundbeck A/S, priority 2014, published 2018).

Details: in vivo; cited from earlier work

For Cc1ccc(-c2nc(N)nc3c2nnn3Cc2cccc(CO[C@H]3CCOC3)n2)o1 [Compound V-81444], which half-life is on record?
The half-life was 5 to 7 h.
